Reference: patent US7132435B2, “Compounds” (Pfizer Inc., priority 2003, dated 2006)

Test system: human peripheral blood mononuclear cells
Assay: TNFα release from LPS-stimulated human peripheral blood mononuclear cells (TNFα screen)
Assay type: cell-based
Details: PBMC, 18 hours incubation, TNFα in supernatant by ELISA
Procedure: Venous blood is collected from healthy volunteers and the mononuclear cells purified by centrifugation through Histopaque (Ficoll) cushions. TNFα production from these cells is stimulated by addition of lipopolysaccharide. After 18 hours incubation in the presence of LPS, the cell supernatant is removed and the concentration of TNFα in the supernatant determined by ELISA. Addition of PDE4 inhibitors reduces the amount of TNFα produced. An IC50 is determined which is equal to the concentration of compound that gives 50% inhibition of TNFα production as compared to the LPS stimulated control wells.

IC50 [nM] | SMILES
0.8 | Cc1ccc(C(=O)N[C@H]2CC[C@@H](NC(=O)c3cc(F)cnc3Oc3ccc4c(c3)SCC4)CC2)c(O)c1 [Example 3, Syn-2-(2,3-dihydro-benzo[b]thiophen-6-yloxy)-5-fluoro-N-[4-(2-hydroxy-4-methyl-benzoylamino)-cyclohexyl]-nicotinamide]
0.6 | O=C(N[C@H]1CC[C@@H](NC(=O)c2cccn3ccnc23)CC1)c1cc(F)cnc1Oc1ccc2c(c1)SCC2 [Example 1, Syn-imidazo[1,2-a]pyridine-8-carboxylic acid (4-{[2-(2,3-dihydro-benzo[b]thiophen-6-yloxy)-5-fluoro-pyridine-3-carbonyl]-amino}-cyclohexyl)-amide]
